{"source": "ChEMBL document CHEMBL1154622", "about": "“Structure-guided design of potent and selective pyrimidylpyrrole inhibitors of extracellular signal-regulated kinase (ERK) using conformational control” (J Med Chem, 2009)", "key": {"[1]": {"target": "Ribosomal protein S6 kinase alpha-2 (Homo sapiens) (UniProt Q15349)", "sequence (Q15349 whole entry)": "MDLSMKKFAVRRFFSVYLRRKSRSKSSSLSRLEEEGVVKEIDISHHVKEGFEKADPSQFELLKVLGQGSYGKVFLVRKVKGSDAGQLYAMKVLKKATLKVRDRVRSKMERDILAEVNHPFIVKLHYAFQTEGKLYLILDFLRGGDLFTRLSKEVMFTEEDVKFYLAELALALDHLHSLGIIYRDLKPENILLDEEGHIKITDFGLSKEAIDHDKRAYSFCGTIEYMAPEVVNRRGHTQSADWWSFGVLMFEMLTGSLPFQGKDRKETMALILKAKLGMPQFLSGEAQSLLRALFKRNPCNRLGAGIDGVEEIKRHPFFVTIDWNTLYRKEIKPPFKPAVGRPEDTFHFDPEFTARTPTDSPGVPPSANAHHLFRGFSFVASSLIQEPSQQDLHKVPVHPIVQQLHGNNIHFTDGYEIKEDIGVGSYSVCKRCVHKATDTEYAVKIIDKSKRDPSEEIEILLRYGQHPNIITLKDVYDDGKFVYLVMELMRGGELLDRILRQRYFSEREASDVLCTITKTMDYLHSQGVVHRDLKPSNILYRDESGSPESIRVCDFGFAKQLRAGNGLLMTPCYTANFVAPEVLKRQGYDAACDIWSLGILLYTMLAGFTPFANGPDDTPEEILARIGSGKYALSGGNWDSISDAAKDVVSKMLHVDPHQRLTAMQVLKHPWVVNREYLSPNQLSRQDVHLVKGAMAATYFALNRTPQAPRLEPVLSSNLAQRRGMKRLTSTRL", "assay": "Inhibition of RSK3 at 1 uM"}, "[2]": {"target": "Serine/threonine-protein kinase Sgk3 (Homo sapiens) (UniProt Q96BR1)", "assay": "Inhibition of SGK3 at 1 uM"}, "[3]": {"target": "Angiopoietin-1 receptor (Homo sapiens) (UniProt Q02763)", "assay": "Inhibition of TIE2 at 1 uM"}, "[4]": {"target": "Tyrosine-protein kinase receptor TYRO3 (Homo sapiens) (UniProt Q06418)", "assay": "Inhibition of TYRO3 at 1 uM"}, "[5]": {"target": "Tyrosine-protein kinase Yes (Homo sapiens) (UniProt P07947)", "assay": "Inhibition of YES at 1 uM"}, "[6]": {"assay": "Half life in mouse at 33 mg/kg, po", "format": "ADME, organism-based", "design": "dose 33 mg/kg, route oral", "details": "in vivo"}, "[7]": {"target": "Receptor-type tyrosine-protein kinase FLT3 (Homo sapiens, UniProt P36888)", "assay": "Inhibition of FLT3"}, "[8]": {"target": "Rho-associated protein kinase 1 (Homo sapiens, UniProt Q13464)", "sequence (Q13464 whole entry)": "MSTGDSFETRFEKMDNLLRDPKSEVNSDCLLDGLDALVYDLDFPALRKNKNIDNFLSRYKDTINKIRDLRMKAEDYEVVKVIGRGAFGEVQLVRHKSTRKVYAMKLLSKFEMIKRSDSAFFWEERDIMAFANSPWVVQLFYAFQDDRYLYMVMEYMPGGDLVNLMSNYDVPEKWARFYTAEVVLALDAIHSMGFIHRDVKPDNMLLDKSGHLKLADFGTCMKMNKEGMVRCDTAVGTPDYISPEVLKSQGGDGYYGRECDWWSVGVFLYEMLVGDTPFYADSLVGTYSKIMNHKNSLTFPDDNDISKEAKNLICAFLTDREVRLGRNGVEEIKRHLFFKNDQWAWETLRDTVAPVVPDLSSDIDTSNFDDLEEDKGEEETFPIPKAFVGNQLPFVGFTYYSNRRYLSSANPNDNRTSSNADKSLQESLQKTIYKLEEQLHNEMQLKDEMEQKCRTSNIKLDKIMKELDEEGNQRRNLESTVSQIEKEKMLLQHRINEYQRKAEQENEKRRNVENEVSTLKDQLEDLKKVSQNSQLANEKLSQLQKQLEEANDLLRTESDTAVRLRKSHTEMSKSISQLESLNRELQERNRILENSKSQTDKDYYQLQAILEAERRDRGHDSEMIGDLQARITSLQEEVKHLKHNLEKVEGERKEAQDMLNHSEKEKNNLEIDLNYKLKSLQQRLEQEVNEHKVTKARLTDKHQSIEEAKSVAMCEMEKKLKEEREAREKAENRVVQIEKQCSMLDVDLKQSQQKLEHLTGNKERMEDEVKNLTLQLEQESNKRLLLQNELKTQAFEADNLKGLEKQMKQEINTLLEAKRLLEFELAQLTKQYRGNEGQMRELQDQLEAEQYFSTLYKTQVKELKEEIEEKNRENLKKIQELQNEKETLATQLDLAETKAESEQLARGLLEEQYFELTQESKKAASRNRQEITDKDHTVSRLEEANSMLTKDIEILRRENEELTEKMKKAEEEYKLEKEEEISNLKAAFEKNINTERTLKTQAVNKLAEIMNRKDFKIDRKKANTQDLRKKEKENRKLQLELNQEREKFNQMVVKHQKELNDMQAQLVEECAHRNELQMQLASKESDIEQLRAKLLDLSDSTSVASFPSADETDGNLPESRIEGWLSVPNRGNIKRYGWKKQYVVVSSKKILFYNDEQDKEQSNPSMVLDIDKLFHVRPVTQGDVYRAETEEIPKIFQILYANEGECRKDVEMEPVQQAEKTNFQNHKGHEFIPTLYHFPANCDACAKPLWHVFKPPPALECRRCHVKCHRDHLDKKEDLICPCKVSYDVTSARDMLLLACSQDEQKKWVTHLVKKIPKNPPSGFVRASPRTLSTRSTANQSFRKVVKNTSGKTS", "assay": "Inhibition of ROCK1"}, "[9]": {"target": "Tyrosine-protein kinase JAK2 (Homo sapiens, UniProt O60674)", "assay": "Inhibition of JAK2"}, "[10]": {"target": "Dual specificity mitogen-activated protein kinase kinase 1 (Homo sapiens, UniProt Q02750)", "sequence (Q02750 whole entry)": "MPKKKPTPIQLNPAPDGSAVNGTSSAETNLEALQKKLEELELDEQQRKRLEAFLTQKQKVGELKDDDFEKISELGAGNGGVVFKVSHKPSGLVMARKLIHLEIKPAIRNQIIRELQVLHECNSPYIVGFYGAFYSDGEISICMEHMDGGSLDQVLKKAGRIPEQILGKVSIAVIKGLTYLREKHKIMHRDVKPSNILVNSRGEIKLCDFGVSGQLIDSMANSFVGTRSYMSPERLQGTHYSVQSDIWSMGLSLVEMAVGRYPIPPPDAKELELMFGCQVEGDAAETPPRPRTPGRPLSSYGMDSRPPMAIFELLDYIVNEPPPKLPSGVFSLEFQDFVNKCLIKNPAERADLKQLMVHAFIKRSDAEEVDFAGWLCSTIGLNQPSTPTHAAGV", "assay": "Inhibition of MEK1"}, "[11]": {"target": "Interleukin-1 receptor-associated kinase 1 (Homo sapiens, UniProt P51617)", "assay": "Inhibition of IRAK1"}, "[12]": {"target": "Serine/threonine-protein kinase TBK1 (Homo sapiens, UniProt Q9UHD2)", "assay": "Inhibition of NAK"}, "[13]": {"target": "Serine/threonine-protein kinase Sgk1 (Homo sapiens, UniProt O00141)", "assay": "Inhibition of SGK1"}, "[14]": {"target": "RAC-alpha serine/threonine-protein kinase (Homo sapiens) (UniProt P31749)", "assay": "Inhibition of AKT1 at 1 uM"}, "[15]": {"target": "RAC-gamma serine/threonine-protein kinase (Homo sapiens, UniProt Q9Y243)", "assay": "Inhibition of AKT3 at 1 uM"}, "[16]": {"target": "5'-AMP-activated protein kinase catalytic subunit alpha-2 (Homo sapiens) (UniProt P54646)", "assay": "Inhibition of AMPK at 2 uM"}, "[17]": {"target": "Cytoplasmic tyrosine-protein kinase BMX (Homo sapiens) (UniProt P51813)", "assay": "Inhibition of BMX at 1 uM"}, "[18]": {"target": "Serine/threonine-protein kinase BRSK1 (Homo sapiens) (UniProt Q8TDC3)", "sequence (Q8TDC3 whole entry)": "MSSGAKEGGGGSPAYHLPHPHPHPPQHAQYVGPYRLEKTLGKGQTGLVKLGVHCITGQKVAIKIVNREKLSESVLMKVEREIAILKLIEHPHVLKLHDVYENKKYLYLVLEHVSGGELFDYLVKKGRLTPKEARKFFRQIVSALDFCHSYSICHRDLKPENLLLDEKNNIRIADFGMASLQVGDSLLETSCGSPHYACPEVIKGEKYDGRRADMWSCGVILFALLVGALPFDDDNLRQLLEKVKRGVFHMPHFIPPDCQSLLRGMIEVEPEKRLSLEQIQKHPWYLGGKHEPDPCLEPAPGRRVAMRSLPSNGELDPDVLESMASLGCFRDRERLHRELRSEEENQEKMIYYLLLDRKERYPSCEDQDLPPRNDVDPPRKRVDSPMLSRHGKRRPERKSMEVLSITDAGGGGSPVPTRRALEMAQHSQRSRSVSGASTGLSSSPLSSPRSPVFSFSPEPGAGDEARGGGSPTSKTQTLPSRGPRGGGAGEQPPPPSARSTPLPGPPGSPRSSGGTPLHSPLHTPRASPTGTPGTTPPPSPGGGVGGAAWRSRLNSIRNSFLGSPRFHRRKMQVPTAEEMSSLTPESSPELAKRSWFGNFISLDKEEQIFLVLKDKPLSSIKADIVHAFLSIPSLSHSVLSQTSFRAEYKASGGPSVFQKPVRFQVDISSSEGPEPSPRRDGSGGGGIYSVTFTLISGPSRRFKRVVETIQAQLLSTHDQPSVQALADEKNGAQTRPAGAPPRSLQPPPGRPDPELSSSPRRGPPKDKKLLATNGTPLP", "assay": "Inhibition of BRSK1 at 1 uM"}, "[19]": {"target": "Tyrosine-protein kinase BTK (Homo sapiens) (UniProt Q06187)", "assay": "Inhibition of BTK at 1 uM"}, "[20]": {"target": "Cyclin-dependent kinase 5 (Homo sapiens) (UniProt Q00535)", "assay": "Inhibition of CDK5 at 1 uM"}, "[21]": {"target": "Tyrosine-protein kinase CSK (Homo sapiens) (UniProt P41240)", "assay": "Inhibition of CSK at 2 uM"}, "[22]": {"target": "Ephrin type-B receptor 4 (Homo sapiens) (UniProt P54760)", "assay": "Inhibition of EPH-B4 at 1 uM"}, "[23]": {"target": "Fibroblast growth factor receptor 4 (Homo sapiens) (UniProt P22455)", "assay": "Inhibition of FGFR4 at 1 uM"}, "[24]": {"target": "Vascular endothelial growth factor receptor 1 (Homo sapiens) (UniProt P17948)", "assay": "Inhibition of FLT-1 at 1 uM"}, "[25]": {"target": "Tyrosine-protein kinase HCK (Homo sapiens) (UniProt P08631)", "assay": "Inhibition of HCK at 1 uM"}, "[26]": {"target": "Mitogen-activated protein kinase 9 (Homo sapiens) (UniProt P45984)", "assay": "Inhibition of JNK2 at 2 uM"}, "[27]": {"target": "Tyrosine-protein kinase Lyn (Homo sapiens) (UniProt P07948)", "sequence (P07948 2-512 limits assumed)": "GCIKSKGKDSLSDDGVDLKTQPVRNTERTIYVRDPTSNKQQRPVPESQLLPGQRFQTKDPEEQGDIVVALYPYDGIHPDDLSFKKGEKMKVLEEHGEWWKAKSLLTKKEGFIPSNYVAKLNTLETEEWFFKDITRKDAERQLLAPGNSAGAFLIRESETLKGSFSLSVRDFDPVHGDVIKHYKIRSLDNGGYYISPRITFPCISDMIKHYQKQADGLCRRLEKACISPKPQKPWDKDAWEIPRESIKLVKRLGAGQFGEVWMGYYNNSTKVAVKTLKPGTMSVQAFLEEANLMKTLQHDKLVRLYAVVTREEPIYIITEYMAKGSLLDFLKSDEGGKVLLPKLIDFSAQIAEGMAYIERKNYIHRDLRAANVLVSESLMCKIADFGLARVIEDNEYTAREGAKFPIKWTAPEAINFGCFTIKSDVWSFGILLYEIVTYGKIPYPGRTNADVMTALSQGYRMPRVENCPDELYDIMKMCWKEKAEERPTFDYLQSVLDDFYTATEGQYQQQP", "assay": "Inhibition of LYN at 2 uM"}, "[28]": {"target": "Ribosomal protein S6 kinase alpha-5 (Homo sapiens) (UniProt O75582)", "assay": "Inhibition of MSK1 at 1 uM"}, "[29]": {"target": "Serine/threonine-protein kinase 4 (Homo sapiens) (UniProt Q13043)", "sequence (Q13043 whole entry)": "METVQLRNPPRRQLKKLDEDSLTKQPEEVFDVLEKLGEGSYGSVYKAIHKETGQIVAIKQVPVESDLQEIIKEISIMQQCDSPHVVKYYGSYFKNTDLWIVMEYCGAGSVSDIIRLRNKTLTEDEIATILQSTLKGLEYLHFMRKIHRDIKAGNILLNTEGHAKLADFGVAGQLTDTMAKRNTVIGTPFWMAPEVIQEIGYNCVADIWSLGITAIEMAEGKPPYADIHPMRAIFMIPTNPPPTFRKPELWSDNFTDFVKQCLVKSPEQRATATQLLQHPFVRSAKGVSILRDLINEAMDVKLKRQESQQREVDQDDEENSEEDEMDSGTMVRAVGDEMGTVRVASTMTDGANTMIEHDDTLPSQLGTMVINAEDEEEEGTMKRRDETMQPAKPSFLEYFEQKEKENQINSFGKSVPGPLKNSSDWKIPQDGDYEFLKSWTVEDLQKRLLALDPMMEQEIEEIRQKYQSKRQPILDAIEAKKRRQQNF", "assay": "Inhibition of MST1 at 1 uM"}, "[30]": {"target": "Serine/threonine-protein kinase Nek1 (Homo sapiens) (UniProt Q96PY6)", "assay": "Inhibition of NEK1 at 1 uM"}, "[31]": {"target": "Ribosomal protein S6 kinase beta-1 (Homo sapiens) (UniProt P23443)", "assay": "Inhibition of P70S6K at 2 uM"}, "[32]": {"target": "Serine/threonine-protein kinase PAK 2 (Homo sapiens) (UniProt Q13177)", "assay": "Inhibition of PAK2 at 1 uM"}, "[33]": {"target": "[Pyruvate dehydrogenase (acetyl-transferring)] kinase isozyme 1, mitochondrial (Homo sapiens) (UniProt Q15118)", "assay": "Inhibition of PDK1 at 2 uM"}, "[34]": {"target": "Protein kinase C eta type (Homo sapiens) (UniProt P24723)", "assay": "Inhibition of PKCeta at 1 uM"}, "[35]": {"target": "Protein kinase C alpha type (Homo sapiens) (UniProt P17252)", "assay": "Inhibition of PKCalpha at 2 uM"}, "[36]": {"target": "Protein kinase C beta type (Homo sapiens) (UniProt P05771)", "assay": "Inhibition of PKCbeta2 at 2 uM"}, "[37]": {"target": "Protein kinase C theta type (Homo sapiens) (UniProt Q04759)", "assay": "Inhibition of PKCtheta at 2 uM"}, "[38]": {"target": "Serine/threonine-protein kinase D2 (Homo sapiens) (UniProt Q9BZL6)", "assay": "Inhibition of PRKD2 at 1 uM"}, "[39]": {"target": "Protein-tyrosine kinase 2-beta (Homo sapiens) (UniProt Q14289)", "assay": "Inhibition of PYK2 at 1 uM"}, "[40]": {"target": "RAF proto-oncogene serine/threonine-protein kinase (Homo sapiens) (UniProt P04049)", "sequence (P04049 whole entry)": "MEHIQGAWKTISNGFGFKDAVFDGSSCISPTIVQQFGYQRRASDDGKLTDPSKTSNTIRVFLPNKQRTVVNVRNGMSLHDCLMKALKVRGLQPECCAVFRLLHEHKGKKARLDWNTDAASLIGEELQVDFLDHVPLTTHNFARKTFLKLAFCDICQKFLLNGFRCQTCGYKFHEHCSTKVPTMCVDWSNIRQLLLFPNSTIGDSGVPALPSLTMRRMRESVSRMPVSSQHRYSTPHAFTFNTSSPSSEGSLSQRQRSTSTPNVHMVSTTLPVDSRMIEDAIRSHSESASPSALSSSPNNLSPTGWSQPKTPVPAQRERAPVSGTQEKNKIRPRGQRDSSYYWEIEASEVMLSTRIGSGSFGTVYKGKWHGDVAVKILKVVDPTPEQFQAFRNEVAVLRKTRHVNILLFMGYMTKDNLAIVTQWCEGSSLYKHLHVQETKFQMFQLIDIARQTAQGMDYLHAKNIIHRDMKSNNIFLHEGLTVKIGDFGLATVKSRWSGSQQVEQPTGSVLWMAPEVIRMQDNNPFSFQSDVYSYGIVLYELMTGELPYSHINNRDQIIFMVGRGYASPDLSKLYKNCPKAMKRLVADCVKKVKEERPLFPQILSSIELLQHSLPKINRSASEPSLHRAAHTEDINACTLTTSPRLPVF", "assay": "Inhibition of cRAF at 2 uM"}, "[41]": {"target": "Proto-oncogene tyrosine-protein kinase ROS (Homo sapiens) (UniProt P08922)", "assay": "Inhibition of ROS at 1 uM"}, "[42]": {"assay": "Inhibition of GSK3"}, "[43]": {"assay": "Clearance in rat at 3 mg/kg, iv", "format": "ADME, organism-based", "design": "dose 3 mg/kg, route intravenous", "details": "in vivo"}, "[44]": {"assay": "Half life in rat at 3 mg/kg, iv", "format": "ADME, organism-based", "design": "dose 3 mg/kg, route intravenous", "details": "in vivo"}, "[45]": {"assay": "Volume of distribution at steady state in rat at 3 mg/kg, iv", "format": "ADME, organism-based", "design": "dose 3 mg/kg, route intravenous", "details": "in vivo, read-out: Vdss"}, "[46]": {"assay": "AUC (0 to 8 hrs) in rat at 3 mg/kg, iv", "format": "ADME, organism-based", "design": "time < 8 hr, dose 3 mg/kg, route intravenous", "details": "plasma"}, "[47]": {"assay": "Plasma concentration in rat at 3 mg/kg, iv after 8 hrs", "format": "ADME, organism-based", "design": "dose 3 mg/kg, route intravenous"}, "[48]": {"assay": "Plasma concentration in rat at 10 mg/kg, po after 8 hrs", "format": "ADME, organism-based", "design": "dose 10 mg/kg, route oral"}, "[49]": {"assay": "Clearance in mouse at 5 mg/kg, iv", "format": "ADME, organism-based", "design": "dose 5 mg/kg, route intravenous", "details": "in vivo"}, "[50]": {"assay": "Plasma concentration in mouse at 5 mg/kg, iv after 8 hrs", "format": "ADME, organism-based", "design": "dose 5 mg/kg, route intravenous"}, "[51]": {"tested_on": "HT-29", "assay": "Antiproliferative activity against human HT-29 cells", "format": "functional, cell-based"}, "[52]": {"target": "Dual specificity protein kinase CLK3 (Homo sapiens) (UniProt P49761)", "details": "1 uM", "description": "Inhibition of CLK3 at 1 uM"}, "[53]": {"target": "Inhibitor of nuclear factor kappa-B kinase subunit beta (Homo sapiens) (UniProt O14920)", "details": "2 uM", "description": "Inhibition of IKK-beta at 2 uM"}}, "data": [{"compound": "Cc1cnc(Nc2ccc(F)cc2Cl)nc1-c1c[nH]c(C(=O)N[C@H](CO)c2cccc(Cl)c2)c1", "values": [{"measurement": "inhibition", "setting": "[1]", "result": 7, "unit": "%"}, {"measurement": "inhibition", "setting": "[2]", "result": 2, "unit": "%"}, {"measurement": "inhibition", "setting": "[3]", "result": 0, "unit": "%"}, {"measurement": "inhibition", "setting": "[4]", "result": 0, "unit": "%"}, {"measurement": "inhibition", "setting": "[5]", "result": 5, "unit": "%"}, {"measurement": "half-life", "setting": "[6]", "result": 4.4, "unit": "h"}, {"measurement": "Ki", "setting": "[7]", "result": 1.4, "unit": "µM"}, {"measurement": "Ki", "setting": "[8]", "result": 1.4, "unit": "µM"}, {"measurement": "Ki", "setting": "[9]", "result": "> 4", "unit": "µM"}, {"measurement": "Ki", "setting": "[10]", "result": "> 4", "unit": "µM"}, {"measurement": "Ki", "setting": "[11]", "result": "> 10", "unit": "µM"}, {"measurement": "Ki", "setting": "[12]", "result": "> 10", "unit": "µM"}, {"measurement": "Ki", "setting": "[13]", "result": "> 10", "unit": "µM"}, {"measurement": "inhibition", "setting": "[14]", "result": 0, "unit": "%"}, {"measurement": "inhibition", "setting": "[15]", "result": 0, "unit": "%"}, {"measurement": "inhibition", "setting": "[16]", "result": 5, "unit": "%"}, {"measurement": "inhibition", "setting": "[17]", "result": 3, "unit": "%"}, {"measurement": "inhibition", "setting": "[18]", "result": 0, "unit": "%"}, {"measurement": "inhibition", "setting": "[19]", "result": 5, "unit": "%"}, {"measurement": "inhibition", "setting": "[20]", "result": 24, "unit": "%"}, {"measurement": "inhibition", "setting": "[21]", "result": 0, "unit": "%"}, {"measurement": "inhibition", "setting": "[22]", "result": 0, "unit": "%"}, {"measurement": "inhibition", "setting": "[23]", "result": 0.3, "unit": "%"}, {"measurement": "inhibition", "setting": "[24]", "result": 0, "unit": "%"}, {"measurement": "inhibition", "setting": "[25]", "result": 3, "unit": "%"}, {"measurement": "inhibition", "setting": "[26]", "result": 43, "unit": "%"}, {"measurement": "inhibition", "setting": "[27]", "result": 7, "unit": "%"}, {"measurement": "inhibition", "setting": "[28]", "result": 7, "unit": "%"}, {"measurement": "inhibition", "setting": "[29]", "result": 4, "unit": "%"}, {"measurement": "inhibition", "setting": "[30]", "result": 6, "unit": "%"}, {"measurement": "inhibition", "setting": "[31]", "result": 18, "unit": "%"}, {"measurement": "inhibition", "setting": "[32]", "result": 0, "unit": "%"}, {"measurement": "inhibition", "setting": "[33]", "result": 10, "unit": "%"}, {"measurement": "inhibition", "setting": "[34]", "result": 2, "unit": "%"}, {"measurement": "inhibition", "setting": "[35]", "result": 12, "unit": "%"}, {"measurement": "inhibition", "setting": "[36]", "result": 4, "unit": "%"}, {"measurement": "inhibition", "setting": "[37]", "result": 17, "unit": "%"}, {"measurement": "inhibition", "setting": "[38]", "result": 50, "unit": "%"}, {"measurement": "inhibition", "setting": "[39]", "result": 6, "unit": "%"}, {"measurement": "inhibition", "setting": "[40]", "result": 3, "unit": "%"}, {"measurement": "inhibition", "setting": "[41]", "result": 3, "unit": "%"}, {"measurement": "Ki", "setting": "[42]", "result": 0.395, "unit": "µM"}, {"measurement": "clearance", "setting": "[43]", "result": 24, "unit": "mL/min/kg"}, {"measurement": "half-life", "setting": "[44]", "result": 3.2, "unit": "h"}, {"measurement": "Vd", "setting": "[45]", "result": 4.9, "unit": "L/kg"}, {"measurement": "AUC(0-t) at 8 h", "setting": "[46]", "result": 1600, "unit": "ng·h/mL"}, {"measurement": "concentration at 8 h", "setting": "[47]", "result": 50, "unit": "ng/mL"}, {"measurement": "concentration at 8 h", "setting": "[48]", "result": 267, "unit": "ng/mL"}, {"measurement": "clearance", "setting": "[49]", "result": 55, "unit": "mL/min/kg"}, {"measurement": "concentration at 8 h", "setting": "[50]", "result": 17, "unit": "ng/mL"}, {"measurement": "IC50", "setting": "[51]", "result": 0.048, "unit": "µM"}, {"measurement": "inhibition", "setting": "[52]", "result": 9, "unit": "%"}, {"measurement": "inhibition", "setting": "[53]", "result": 8, "unit": "%"}]}]}
